This assay deals with T1, PDK-1 (Homo sapiens, UniProt O15530).
T1 sequence (O15530 1-556): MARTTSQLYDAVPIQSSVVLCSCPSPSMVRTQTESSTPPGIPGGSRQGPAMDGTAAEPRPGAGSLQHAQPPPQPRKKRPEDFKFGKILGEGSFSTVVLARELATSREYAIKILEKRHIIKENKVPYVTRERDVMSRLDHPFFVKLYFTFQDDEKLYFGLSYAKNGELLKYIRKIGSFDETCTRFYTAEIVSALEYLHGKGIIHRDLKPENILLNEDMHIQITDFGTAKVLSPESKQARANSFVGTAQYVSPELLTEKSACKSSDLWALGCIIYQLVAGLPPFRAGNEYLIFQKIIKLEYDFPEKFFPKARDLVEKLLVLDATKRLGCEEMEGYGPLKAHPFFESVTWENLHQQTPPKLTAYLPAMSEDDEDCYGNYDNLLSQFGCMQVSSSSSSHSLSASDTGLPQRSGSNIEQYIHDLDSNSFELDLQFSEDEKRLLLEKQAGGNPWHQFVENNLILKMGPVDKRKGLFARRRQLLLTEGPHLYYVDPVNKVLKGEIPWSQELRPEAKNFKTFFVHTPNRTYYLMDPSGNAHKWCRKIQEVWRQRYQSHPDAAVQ
In words: PDK-1 kinase inhibition ELISA assay (phosphorylation of His6-tagged SGK1 S422D by PDK-1). The assay is classed as biochemical. In general terms: An ELISA detects its analyte on a solid surface through an enzyme-linked reagent.

The mark [1] stands for this setting: PDK-1 ELISA, Table 11, read-out: Average IC50.

Where two headings read alike, the source gives them in different places.

As to `COc1cc2ncc3c(NO)nc(-c4cncc(OC[C@@H](N)Cc5c[nH]c6ccccc56)c4)cc3c2cc1OC` [Compound I-1, 2-(5-{[(2S)-2-amino-3-(1H-indol-3-yl)propyl]oxy}pyridin-3-yl)-N-hydroxy-8,9-dimethoxybenzo[c]-2,7-naphthyridin-4-amine], the IC50 (usually the concentration at which inhibition is half-maximal) under setting [1] was 80 nM.
Same read-out and setting: then `COc1cc2ncc3c(NO)nc(-c4cncc(OC[C@@H](N)Cc5cccc(Cl)c5)c4)cc3c2cc1OC` [Compound I-2, 2-(5-{[(2S)-2-amino-3-(3-chlorophenyl)propyl]oxy}pyridin-3-yl)-N-hydroxy-8,9-dimethoxybenzo[c]-2,7-naphthyridin-4-amine], with over 100 nM.
In the case of `COCCOc1cc2ncc3c(NCc4cccnc4)nc(NCc4cccnc4)cc3c2cc1OC` [Compound I-3, 9-methoxy-8-(2-methoxyethoxy)-N,N′-bis(pyridin-3-ylmethyl)benzo[c]-2,7-naphthyridine-2,4-diamine], the IC50 under setting [1] came to 8830 nM.
The same measure, in the same setting: then `CCN1CCCC1CNc1cc2c(cnc3cc(OCCOC)c(OC)cc32)c(NCC2CCCN2CC)n1` (stereo not drawn) [Compound I-4, N,N′-bis[(1-ethylpyrrolidin-2-yl)methyl]-9-methoxy-8-(2-methoxyethoxy)benzo[c]-2,7-naphthyridine-2,4-diamine], with over 20000 nM.
The same measure, in the same setting: then `COc1cc2c(cc1OCCN1CCN(C)CC1)ncc1c(N)nc(-n3ccnc3)cc12` [Ia-10, 2-(1H-imidazol-1-yl)-9-methoxy-8-(2-(4-methylpiperazin-1-yl)ethoxy)benzo[c][2,7]naphthyridin-4-amine], with 1150 nM.
`COc1cc2c(cc1OCC1CCN(C)CC1)ncc1c(N)nc(-c3ccncc3)cc12` [Ia-22, 9-Methoxy-8-[(1-methylpiperidin-4-yl)methoxy]-2-pyridin-4-ylbenzo[c]-2,7-naphthyridin-4-amine]: the IC50 under setting [1] stood at 6920 nM.
On the same count and under the same terms, then `CCOc1cc2ncc3c(N)nc(-n4ccnc4)cc3c2cc1NC(=S)NCCN1CCOCC1` [Ia-26, N-[4-amino-8-ethoxy-2-(1H-imidazol-1-yl)benzo[c]-2,7-naphthyridin-9-yl]-N′-(2-morpholin-4-ylethyl)thiourea], with 549 nM; and `Nc1nc(-n2ccnc2)cc2c1cnc1cc(Br)ccc12` [Ia-37, 8-Bromo-2-(1H-imidazol-1-yl)benzo[c]-2,7-naphthyridin-4-amine], with 527 nM.
Same read-out and setting: then `COCCN(C)c1cc2ncc3c(N)nc(-c4cncc(OC[C@@H](N)Cc5ccccc5)c4)cc3c2cc1OC` [Ia-38, 2-(5-{[(2S)-2-amino-3-phenylpropyl]oxy}pyridine-3-yl)-9-methoxy-N^8-(2-methoxyethyl)-N^8-methylbenzo[c]-2,7-naphthyridin-4,8-diamine], with 69.5 nM.
Still for that read-out and setting: for `COc1cc2c(cc1N1CCOCC1)ncc1c(N)nc(-c3cncc(OC[C@@H](N)Cc4ccccc4)c3)cc12` [Ia-39, 2-(5-{[(2S)-2-Amino-3-phenylpropyl]oxy}pyridin-3-yl)-9-methoxy-8-morpholin-4-ylbenzo[c]-2,7-naphthyridin-4-amine] the value was 59 nM.
Turning to `COCCOc1cc2ncc3c(N)nc(N4CCCCC4C)cc3c2cc1OC` (stereo not drawn) [Ia-43, 9-methoxy-8-(2-methoxyethoxy)-2-(2-methylpiperidin-1-yl)benzo[c]-2,7-naphthyridin-4-amine], the 50% inhibitory concentration (IC50) under setting [1] worked out at 2450 nM.
On the same count and under the same terms, for `COCCOc1cc2ncc3c(N)nc(N(C)CC4OCCO4)cc3c2cc1OC` [Ia-44, N^2-(1,3-dioxolan-2-ylmethyl)-9-methoxy-8-(2-methoxyethoxy)-N^2-methylbenzo[c]-2,7-naphthyridine-2,4-diamine] the value was 2680 nM.
Consider `COCCOc1cc2ncc3c(N)nc(N(C)C(C)C)cc3c2cc1OC` [Ia-45, N^2-isopropyl-9-methoxy-8-(2-methoxyethoxy)-N^2-methylbenzo[c]-2,7-naphthyridine-2,4-diamine], for which the IC50 under setting [1] was 1430 nM.
On the same count and under the same terms, for `CCOc1cc2ncc3c(N)nc(-c4ccc(Br)cc4)cc3c2cc1OCC` [Ia-47, 2-(4-bromophenyl)-8,9-diethoxybenzo[c]-2,7-naphthyridin-4-amine] the value was over 20000 nM; for `COCCOc1cc2ncc3c(N)nc(NCCN4CCCCC4)cc3c2cc1OC` [Ia-49, 9-methoxy-8-(2-methoxyethoxy)-N^2-(2-piperidin-1-ylethyl)benzo[c]-2,7-naphthyridine-2,4-diamine], over 20000 nM.
Still for that read-out and setting: then `COCCOc1cc2ncc3c(N)nc(N4CCC(C)CC4)cc3c2cc1OC` [Ia-50, 9-methoxy-8-(2-methoxyethoxy)-2-(4-methylpiperidin-1-yl)benzo[c]-2,7-naphthyridin-4-amine], with 2440 nM.
On to `COCCOc1cc2ncc3c(N)nc(N4CCC(CCO)CC4)cc3c2cc1OC` [Ia-51, 2-{1-[4-amino-9-methoxy-8-(2-methoxyethoxy)benzo[c]-2,7-naphthyridin-2-yl]piperidin-4-yl}ethanol], for which the IC50 under setting [1] is 3720 nM.
Same read-out and setting: then `COCCOc1cc2ncc3c(N)nc(N(C)C4CCN(C)C4)cc3c2cc1OC` (stereo not drawn) [Ia-52, 9-methoxy-8-(2-methoxyethoxy)-N2-methyl-N^2-(1-methylpyrrolidin-3-yl)benzo[c]-2,7-naphthyridine-2,4-diamine], with 3280 nM; and `COCCOc1cc2ncc3c(N)nc(N4CCC(O)CC4)cc3c2cc1OC` [Ia-53, 1-[4-amino-9-methoxy-8-(2-methoxyethoxy)benzo[c]-2,7-naphthyridin-2-yl]piperidin-4-ol], with 2060 nM.
The same measure, in the same setting: then `COCCOc1cc2ncc3c(N)nc(N(C)CCOC)cc3c2cc1OC` [Ia-54, 9-methoxy-8-(2-methoxyethoxy)-N^2-(2-methoxyethyl)-N^2-methylbenzo[c]-2,7-naphthyridine-2,4-diamine], with 2260 nM.
For the compound `COCCNc1cc2c(cnc3cc(OCCOC)c(OC)cc32)c(N)n1` [Ia-55, 9-methoxy-8-(2-methoxyethoxy)-N^2-(2-methoxyethyl)benzo[c]-2,7-naphthyridine-2,4-diamine], inhibition was half-maximal at 7490 nM (IC50).
With `COCCOc1cc2ncc3c(N)nc(N4CCC[C@@H]4COC)cc3c2cc1OC` [Ia-56, 9-methoxy-8-(2-methoxyethoxy)-2-[(2R)-2-(methoxymethyl)pyrrolidin-1-yl]benzo[c]-2,7-naphthyridin-4-amine], the IC50 under setting [1] was 2360 nM.
Regarding `COCCOc1cc2ncc3c(N)nc(N4CCOCC4)cc3c2cc1OC` [Ia-57, 9-Methoxy-8-(2-methoxyethoxy)-2-morpholin-4-ylbenzo[c]-2,7-naphthyridin-4-amine], the IC50 under setting [1] turned out to be 6420 nM.
Same read-out and setting: for `COCCOc1cc2ncc3c(N)nc(OC)cc3c2cc1OC` [Ia-58, 2,9-Dimethoxy-8-(2-methoxyethoxy)benzo[c]-2,7-naphthyridin-4-amine] the value was 1280 nM.
In turn, `COCCOc1cc2ncc3c(N)nc(N(C)C)cc3c2cc1OC` [Ia-60, 9-Methoxy-8-(2-methoxyethoxy)-N^2,N^2-dimethylbenzo[c]-2,7-naphthyridine-2,4-diamine] gave a half-inhibitory concentration (IC50) of 739 nM.
`COCCOc1cc2ncc3c(N)nc(Cl)cc3c2cc1OC` [Ia-61, 2-Chloro-9-methoxy-8-(2-methoxyethoxy)benzo[c]-2,7-naphthyridin-4-amine]: the IC50 under setting [1] worked out at 2620 nM.
For the compound `COCCOc1cc2ncc3c(N)nc(N4CCCC4)cc3c2cc1OC` [Ia-62, 9-Methoxy-8-(2-methoxyethoxy)-2-pyrrolidin-1-ylbenzo[c]-2,7-naphthyridin-4-amine], under setting [1], the IC50 turned out to be 1860 nM.

(Values after patent US20080293712A1, “Benzo[C][2,7]Naphtyridine Derivatives, Methods of Making Thereof and Methods of Use Thereof” (WYETH, priority 2007, published 2008).)
